Experiments:
[1] = Inhibition of Wnt/beta-catenin D145A/E155A mutant transactivation signalling in human HEK293 cells transfected with TOPFlash reporter gene incubated for 24 hrs by TOPFlash luciferase assay; format: cell-based; details: HEK293, 24 h
[2] = system: SW480; test: Antiproliferative activity against beta-catenin signalling overexpressing human SW480 cells assessed as reduction in cell growth incubated for 72 hrs by MTS assay; format: functional, cell-based; details: SW480, 72 h
[3] = system: MDA-MB-231; test: Antiproliferative activity against beta-catenin signalling overexpressing human MDA-MB-231 cells assessed as reduction in cell growth incubated for 72 hrs by MTS assay; format: functional, cell-based; details: MDA-MB-231, 72 h
[4] = Inhibition of full length beta-catenin E155A mutant/N-terminal biotinylated human BCL9 HD2 (350 to 375 residues) protein-protein interaction in human SW480 cells incubated for 1 hr by Alphascreen assay; format: cell-based
[5] = Inhibition of full length beta-catenin D145A mutant/N-terminal biotinylated human BCL9 HD2 (350 to 375 residues) protein-protein interaction in human SW480 cells incubated for 1 hr by Alphascreen assay; format: cell-based
[6] = Cytotoxicity against human MCF-10A cells assessed as reduction in cell growth incubated for 72 hrs by MTS assay; format: toxicity, cell-based
[7] = Inhibition of Wnt/beta-catenin transactivation signalling in human SW480 cells transfected with renilla luciferase and TOPFlash reporter gene incubated for 24 hrs by dual-luciferase assay; format: cell-based; details: SW480, 24 h
[8] = system: MDA-MB-468; test: Antiproliferative activity against beta-catenin signalling overexpressing human MDA-MB-468 cells assessed as reduction in cell growth incubated for 72 hrs by MTS assay; format: functional, cell-based; details: MDA-MB-468, 72 h
[9] = Inhibition of Wnt/beta-catenin transactivation signalling in human HEK293 cells transfected with TOPFlash reporter gene incubated for 24 hrs by TOPFlash luciferase assay; format: cell-based; details: HEK293, 24 h
[10] = target: T1, beta-catenin-B-cell lymphoma 9 protein complex (Homo sapiens, UniProt P35222); test: Inhibition of full length beta-catenin (1 to 781 residues) (unknown origin) expressed in Escherichia coli BL21 (DE3)/N-terminal biotinylated human BCL9 HD2 (350 to 375 residues) protein-protein interaction assessed as inhibition constant incubated for 1 hr by Alphascreen assay
T1 sequence (P35222 whole entry): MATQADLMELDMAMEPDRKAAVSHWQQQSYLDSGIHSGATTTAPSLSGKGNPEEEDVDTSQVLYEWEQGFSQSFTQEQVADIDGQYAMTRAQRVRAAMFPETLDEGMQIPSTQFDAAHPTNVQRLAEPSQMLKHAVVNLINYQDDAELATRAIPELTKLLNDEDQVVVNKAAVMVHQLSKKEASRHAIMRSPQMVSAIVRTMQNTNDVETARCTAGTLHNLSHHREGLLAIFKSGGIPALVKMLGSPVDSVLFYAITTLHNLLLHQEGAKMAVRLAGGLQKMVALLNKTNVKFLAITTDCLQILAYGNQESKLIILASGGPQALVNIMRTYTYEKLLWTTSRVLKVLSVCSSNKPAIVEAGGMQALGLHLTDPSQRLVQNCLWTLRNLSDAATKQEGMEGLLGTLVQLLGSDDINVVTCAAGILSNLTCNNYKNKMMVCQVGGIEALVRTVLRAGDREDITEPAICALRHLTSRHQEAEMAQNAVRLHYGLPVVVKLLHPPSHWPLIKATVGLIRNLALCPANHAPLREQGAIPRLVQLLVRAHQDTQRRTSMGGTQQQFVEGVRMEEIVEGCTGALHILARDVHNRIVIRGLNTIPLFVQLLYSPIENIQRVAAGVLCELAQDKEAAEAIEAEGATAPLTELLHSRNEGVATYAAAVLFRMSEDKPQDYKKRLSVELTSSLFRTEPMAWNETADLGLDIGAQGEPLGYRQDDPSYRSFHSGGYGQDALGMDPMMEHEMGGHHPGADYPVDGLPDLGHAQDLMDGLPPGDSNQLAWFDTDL
T1 sequence (O00512 whole entry): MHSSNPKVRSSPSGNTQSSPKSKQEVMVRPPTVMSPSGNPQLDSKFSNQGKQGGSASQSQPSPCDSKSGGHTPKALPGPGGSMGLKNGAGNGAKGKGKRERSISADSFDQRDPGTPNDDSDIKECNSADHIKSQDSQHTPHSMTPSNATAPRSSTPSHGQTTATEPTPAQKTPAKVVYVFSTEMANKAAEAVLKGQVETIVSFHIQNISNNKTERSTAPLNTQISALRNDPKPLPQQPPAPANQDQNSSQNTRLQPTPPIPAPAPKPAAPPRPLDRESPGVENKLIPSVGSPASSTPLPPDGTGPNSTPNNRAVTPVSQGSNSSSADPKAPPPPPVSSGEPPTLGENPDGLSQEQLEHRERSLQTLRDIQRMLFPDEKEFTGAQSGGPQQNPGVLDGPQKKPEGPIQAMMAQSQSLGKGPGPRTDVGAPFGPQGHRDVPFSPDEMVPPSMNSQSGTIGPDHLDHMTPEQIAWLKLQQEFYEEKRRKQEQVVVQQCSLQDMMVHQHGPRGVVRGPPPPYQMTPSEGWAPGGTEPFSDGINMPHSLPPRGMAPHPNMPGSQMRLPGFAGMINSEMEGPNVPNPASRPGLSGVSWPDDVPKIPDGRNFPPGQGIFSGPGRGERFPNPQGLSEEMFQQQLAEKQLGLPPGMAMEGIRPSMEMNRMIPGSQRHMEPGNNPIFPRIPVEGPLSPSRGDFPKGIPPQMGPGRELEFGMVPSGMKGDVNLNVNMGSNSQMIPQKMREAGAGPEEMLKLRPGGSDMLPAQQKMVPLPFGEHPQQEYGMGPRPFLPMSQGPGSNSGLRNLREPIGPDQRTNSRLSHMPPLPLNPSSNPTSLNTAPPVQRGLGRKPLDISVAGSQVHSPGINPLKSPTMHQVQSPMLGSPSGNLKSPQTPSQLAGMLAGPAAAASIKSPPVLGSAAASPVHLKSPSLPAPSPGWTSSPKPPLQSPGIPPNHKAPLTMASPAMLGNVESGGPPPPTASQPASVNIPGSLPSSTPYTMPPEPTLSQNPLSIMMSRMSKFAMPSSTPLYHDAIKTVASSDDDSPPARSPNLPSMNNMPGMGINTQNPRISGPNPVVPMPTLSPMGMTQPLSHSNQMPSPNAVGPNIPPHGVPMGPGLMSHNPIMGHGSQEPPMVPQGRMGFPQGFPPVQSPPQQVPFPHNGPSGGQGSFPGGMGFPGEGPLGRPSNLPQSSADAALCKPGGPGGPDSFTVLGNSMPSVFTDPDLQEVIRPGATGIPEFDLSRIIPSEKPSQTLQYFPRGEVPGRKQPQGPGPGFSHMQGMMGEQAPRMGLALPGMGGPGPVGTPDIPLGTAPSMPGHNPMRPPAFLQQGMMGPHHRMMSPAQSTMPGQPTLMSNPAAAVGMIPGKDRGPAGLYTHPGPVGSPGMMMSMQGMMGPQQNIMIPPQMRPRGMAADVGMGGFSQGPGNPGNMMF

[11] = system: HCT-116; test: Antiproliferative activity against beta-catenin signalling overexpressing human HCT-116 cells assessed as reduction in cell growth incubated for 72 hrs by MTS assay; format: functional, cell-based; details: HCT-116, 72 h

CC(C)(C)C1CCC(c2cc(C(=O)N3CCC(Oc4cc(N5CCNCC5)ccc4C#N)CC3)ccc2O[C@H]2CCNC2)CC1.Cl.Cl (mixture of isomers; cis)
IC50 [1]: 24 µM
IC50 [2]: 6.2 µM
IC50 [3]: 4.1 µM
Ki [4]: 3.6 µM
Ki [5]: 6.9 µM
IC50 at 72 h [6]: 18 µM
IC50 [7]: 2.6 µM
IC50 [8]: 3.9 µM
IC50 [9]: 5.7 µM
Ki [10]: 0.96 µM
IC50 [11]: 9.7 µM
